We go through 8 compounds from PubChem BioAssay (NCI).

Values joined by “and” are separate entries in the source; they are usually repeats but may differ in a detail not shown here. Equal entries are not always repeated.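 Test compounds were applied to cells in 96-well plates for 48 hours at 5 doses. The concentration for 50% growth inhibition is given as GI50. TGI: total growth inhibition.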

What all share (experiment): growth of human tumour cells (NCI), 48 h
The test system of assay [1] is OVCAR-8 ovarian.
The subject of assay [2] is BT-549 breast.
The test system of assay [3] is EKVX NSCLC.
Assay [4] relates to CCRF-CEM leukemia.
Assay [5] deals with RPMI-8226 leukemia.
The subject of assay [6] is COLO 205 colon.
Assay [7] has as its system SF-295 CNS.
For assay [8], the system named is MOLT-4 leukemia.
Assay [9] concerns HCC-2998 colon.
Assay [10] has as its system DU-145 prostate.

Turning to `CSC1(SC2=NCCN2)SC2(NCCN2)S1`, the TGI in assay [1] was found to be 43 µM; in assay [2], 54.9 µM; in assay [3] it was 40.5 µM; in [4] it was 26.1 µM; in assay [5], 13.4 µM; in assay [6], 40.5 µM. The TGI came out at 67.6 µM in assay [7], 52.9 µM in [8], 29.8 µM in [9] and 28.2 µM in assay [10].
For the compound `C/C=C/[C@@H]1OC(=O)C2=C[C@@H](O)[C@@H](/C=C/C)O[C@H]21`, the GI50 in assay [1] is 13.4 µM; in assay [2], 2.31 µM; in assay [3], 7.26 µM; in assay [4] it was 0.271 µM; in assay [5], 1.14 µM; in assay [6], 2.2 µM. Also, the GI50 in assay [7] is 18 µM; in [8], 1.73 µM; in assay [9], 28.3 µM; in assay [10] it was 0.989 µM. For the same compound, the TGI in assay [1] was 34.1 µM; in assay [2], 8.67 µM; in assay [3], 21.2 µM; in assay [4], 5.77 µM; in assay [5], 3.76 µM; in assay [6], 6.9 µM. In addition, the TGI in assay [7] is 44.8 µM; in [8], above 19.7 µM; in assay [9], 55 µM; in [10] it was 4.83 µM.
Regarding `COc1cc(C2CC(c3ccc(N(C)C)cc3)=NN2C(C)=O)cc(OC)c1OC` (centres undefined), the GI50 in assay [1] was 6.13 µM; in [2], 2.53 µM; in assay [3], 5.53 µM; in assay [4], 8.17 µM; in assay [5] it was 3.77 µM; in [6], 3.06 µM. For the same compound, the GI50 is 0.374 µM in assay [7], 12.8 µM in assay [8], 2.61 µM in [9] and 2.29 µM in [10]. Moreover, the TGI in [1] is above 100 µM; in assay [2] it was above 100 µM; in assay [3] it was above 100 µM; in [4] it was above 100 µM; in assay [5] it was above 39.3 µM; in [6], above 41.4 µM. Also, the TGI in [7] is above 100 µM; in [8], above 100 µM; in [9] it was 27.1 µM; in assay [10] it was above 35 µM.
In the case of `COc1cc2c3c(n(C)c(=O)c2cc1OC)-c1cc2c(cc1/C3=C\C(N)CN)OCO2` (centres undefined), the GI50 in [1] is 1.75 µM; in assay [2], 0.72 µM; in [3], 2.1 µM; in assay [4], 0.333 µM; in [5], 6.43 µM; in assay [6], 2.08 µM. For the same compound, the GI50 in assay [7] is 1.31 µM; in assay [8] it was 0.125 µM; in [9], 3.22 µM; in assay [10], 2.02 µM. The TGI in assay [1] was 18.8 µM; in assay [2], 4.52 µM; in [3], 9.95 µM; in assay [4] it was 3.63 µM; in [5], 26.1 µM; in assay [6], 12.1 µM. The TGI was 7.79 µM in assay [7], above 40.7 µM in assay [8], 50 µM in assay [9] and 10 µM in [10].
Take `CCN1C(=O)N(CC)C2C1NN=c1s/c(=C\c3cc4ccccc4[nH]3)c(=O)n12` (centres undefined): the GI50 in assay [1] is below 0.0191 µM; in assay [2], 0.0178 µM; in assay [3], 0.0453 µM; in assay [4], 0.0208 µM; in [5] it was below 0.0185 µM; in [6] it was 0.0201 µM. Further, the GI50 in assay [7] is below 0.0112 µM; in assay [8], below 0.018 µM; in assay [9] it was 0.0382 µM; in assay [10] it was 0.0225 µM. In addition, the TGI is 31.3 µM in assay [1]; 16 µM in [2]; above 100 µM in assay [3]; above 100 µM in assay [4]; 2.19 µM in [5]; 0.0448 µM in assay [6]. The TGI was 14.8 µM in assay [7], above 100 µM in assay [8], above 100 µM in [9] and above 100 µM in assay [10].
Consider `c1ccc(P(CCP(CCP(c2ccccc2)c2ccccc2)c2ccccc2)CCP(c2ccccc2)c2ccccc2)cc1` (centres undefined), for which the GI50 was > 10 µM and 1.87 µM in [1]; above 10 µM in [3]; > 10 µM and 2.08 µM in assay [6]; > 10 µM and 3.56 µM in assay [7]. The TGI in assay [1], in [2], in [3], in assay [4], in [5] and in assay [6] was above 10 µM in each case. The TGI in [7] is above 10 µM; in assay [8], 5.85 µM; in assay [9], 4.52 µM; in assay [10] it was above 10 µM.
In the case of `Nc1n[nH]c2cccc(C#Cc3cccc(C(=O)Nc4cc(CN5CCOCC5)cc(C(F)(F)F)c4)c3)c12`, the GI50 is 4.63 µM in assay [1]; 4.33 µM in assay [2]; 5.58 µM in assay [3]; 3.68 µM in [4]; 3.19 µM in assay [5]; 2.7 µM in assay [6]. Further, the GI50 in [7] is 3.46 µM; in assay [8] it was 2.76 µM; in [9] it was 3.3 µM; in [10] it was 9.82 µM. Further, the TGI in assay [1] was determined as 20.6 µM; in assay [2], 18.8 µM; in assay [3], 19.9 µM; in assay [4], 20.3 µM; in assay [5], 27.3 µM; in [6] it was 11.1 µM. Also, the TGI in assay [7] was 14.2 µM; in [8] it was 13.3 µM; in [9], 12.2 µM; in assay [10] it was 23.8 µM.
As for `CC(C)N1C(NNC(=O)c2cnccn2)=NS(=O)(=O)c2ccccc21`, the GI50 in [1] was above 100 µM; in assay [2], above 100 µM; in assay [3], above 100 µM; in assay [4], 1.33 µM; in assay [5], above 100 µM; in assay [6], above 100 µM. The GI50 in assay [7], in [8], in [9] and in assay [10] was above 100 µM in each case. For the same compound, the TGI in assay [1] was above 100 µM; in [2], above 100 µM; in [3] it was above 100 µM; in assay [4], 6.3 µM; in assay [5] it was above 100 µM; in [6] it was above 100 µM. For the same compound, the TGI in assay [7], in assay [8], in assay [9] and in assay [10] was above 100 µM throughout.
